# Measurements reported in article PMC4838890, “Dynamic and flexible H3K9me3 bridging via HP1β dimerization establishes a plastic state of condensed chromatin” (Nature Communications, 2016).
# pKd: −log10 of the molar value. “Also recorded” adds a separate entry of the source.
# Assays:
# [1] = tested on: H3K9me3 oligonucleosomes in the absence of the H4 N-terminal tail; assay: Chromatin coprecipitation, H3K9me3 oligonucleosomes with tailless H4; assay type: binding, Xenopus laevis; conditions: 150 mM NaCl, western blot
# Description: […] Precipitated chromatin complexes were recovered by centrifugation at 16,100g for 30 min at 4°C. Pellets were washed once with 0.5 ml binding buffer and centrifuged for 15 min at 4 °C. Precipitated material was resuspended in 10 μl 1 × SDS loading buffer and boiled for 5 min before running on SDS–PAGE.
# Supplementary Table 1: Summary of conditions used in the different experiments of this study.
# experiment result modification template Temp. [NaCl] [MgCl2]
# chromatin Fig. 1e,f; Fig. S1f-h; H3K9me3 oligo- 4 150 5
# [2] = tested on: H3K9me3 oligonucleosomal templates containing tailless H2A, H2B or H4; assay: Chromatin sedimentation (clustering), H3K9me3 oligonucleosomes with tailless histones; assay type: biochemical, Xenopus laevis; conditions: 150 mM NaCl, n=3
# Description: Figure 3 hHP1β clusters oligonuclesomal arrays in dependence of H3K9me3. (a) Oligonucleosomes (2.5 nM) were incubated with increasing concentrations of hHP1β WT or I161A at 150 mM NaCl. DNA remaining in the supernatant after centrifugation was incubated with EtBr and measured by fluorescence reading. Data were normalized to amounts in absence of added protein. Averages of three independent experiments are plotted; error bars represent s.d.; n=3. (b) Analysis of the hydrodynamic radius of oligonucleosomes (10 nM; DNA labelled with ATTO 610) in the presence of increasing concentrations of hHP1β WT or I161A by FCS at 150 mM NaCl. For details on experimental setup see Supplementary Fig. 3. Error bars represent s.d.; n=3. (c) Oligonucleosomes were reconstituted after mixing H3K9me0 and H3K9me3 octamers at different ratio. […] (d) Precipitation behaviour of oligonucleosomes (2.5 nM) was analysed at different concentrations of NaCl with hHP1β WT at saturating concentration. […] Precipitated material was analysed by western blotting. […] Complexes were fixed with 0.05% (v/v) glutaraldehyde, spotted on mica surfaces and analysed by scanning force microscopy. […] (h) Quantification of results representatively shown in g according to the classification on the top: A, extended; B, partially condensed; C, fully condensed; D; aggregates; n>50 for each condition. […]
# [3] = target: self-dimerization; conditions: ref [9][20]; read-out: dimerization Kd in solution; cited from earlier work
# Description: To test this hypothesis, we analysed an hHP1β chimera where the CSD was replaced with an unrelated dimerization module. We used glutathione S-transferase (GST), as it is known to form dimers of similar strength as hHP1β WT in solution (Kd<1 nM)[9][20].
# [4] = target: CSD-CSD interaction of hHP1β monomers; assay: ITC dilution, CSD-CSD dimerization; assay type: binding, human; conditions: ITC dilution experiments, not shown
substance,measurement,setting,value
"hHP1β WT: recombinant human heterochromatin protein 1β (GenBank NM_001127228), 185 aa",recovery at 3.5 mM and 7.0 mM MgCl2 with tailless H4 chromatin,[1],reduced recovery of hHP1β with H3K9me3 oligonucleosomes in the absence of the H4 N-terminal tail at 3.5 mM MgCl2; also recorded: recovery at 7.0 mM MgCl2 was comparable to the level obtained with H3K9me3 oligonucleosomes containing WT core histones
same,clustering of oligonucleosomes with tailless histones,[2],clustered H3K9me3 oligonucleosomes containing tailless H2A or H2B as efficiently as H3K9me3-oligonucleosomes containing WT core histones; also recorded: the effect on H3K9me3 oligonucleosomes containing tailless H4 was impaired
same,pKd,[3],> 9.00
same,CSD-CSD dimerization strength,[4],nanomolar regime
